Measurements from ChEMBL document CHEMBL1201862, “PubChem BioAssay data set” (2004).
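Step 1: Grow cells in 96-well plates. Step 2: Expose to compound for 48 hours at 5 concentrations. Step 3: Interpolate endpoints linearly; if unreached, use highest concentration. GI50 marks 50% less growth.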 Calls of active or inactive are those of the source. Rule as the data show it: active = GI50 up to about 1.1 µM and inactive = higher.

Assays:
Experiment in all cases: inhibition of tumour cell growth, NCI panel, 48 h
[1] = system: A498
[2] = system: ACHN
[3] = system: COLO 205
[4] = system: HL-60
[5] = system: HT-29
[6] = system: IGROV-1
[7] = system: K562
[8] = system: M14
[9] = system: MCF7
[10] = system: MDA-MB-231
[11] = system: MOLT-4
[12] = system: NCI-H226
[13] = system: NCI-H522
[14] = system: OVCAR-3
[15] = system: OVCAR-4
[16] = system: SF-295
[17] = system: SK-MEL-2
[18] = system: SR
[19] = system: CCRF-CEM
[20] = system: HCC 2998

Measured: GI50

CN(C)CCNCCN
inactive: [1] > 100 µM | [2] > 100 µM | [3] > 100 µM | [4] > 100 µM | [5] > 100 µM | [6] > 100 µM | [7] > 100 µM | [8] > 100 µM | [9] > 100 µM | [10] > 100 µM | [11] > 100 µM | [12] > 100 µM | [13] > 100 µM | [14] > 100 µM | [15] > 100 µM | [16] > 100 µM | [17] > 100 µM | [18] > 100 µM

Cc1cc(C)c(O)c(Cc2cccc(Cc3cc(C)cc(C)c3O)c2O)c1
inactive: [1] > 100 µM | [2] > 100 µM | [19] 35.5 µM | [3] > 100 µM | [5] > 100 µM | [6] > 100 µM | [7] 35.9 µM | [8] > 100 µM | [9] > 100 µM | [10] > 100 µM | [11] > 100 µM | [13] > 100 µM | [14] > 100 µM | [15] > 100 µM | [16] > 100 µM | [17] > 100 µM | [18] 77.6 µM

NC(=O)c1ccc[n+](C2=C([N-]S(=O)(=O)c3ccccc3)C(=O)c3ccccc3C2=O)c1
inactive: [2] 13.4 µM | [19] 42.6 µM | [3] 12.8 µM | [20] 10.3 µM | [4] 18.5 µM | [5] 17.1 µM | [6] 11.8 µM | [7] 64.3 µM | [8] 15.7 µM | [9] 14.8 µM | [10] 18.1 µM | [11] 25.2 µM | [12] 14.7 µM | [13] 10.9 µM | [14] 5.08 µM | [15] 1.17 µM | [16] 17.5 µM | [17] 12.8 µM | [18] 33.6 µM

O=c1[nH]nc(Cc2ccccc2)n1O
inactive: [1] > 100 µM | [2] > 100 µM | [19] > 100 µM | [3] > 100 µM | [4] > 100 µM | [5] > 100 µM | [6] > 100 µM | [7] > 100 µM | [9] > 100 µM | [10] > 100 µM | [11] > 100 µM | [12] > 100 µM | [13] > 100 µM | [14] > 100 µM | [15] > 100 µM | [16] > 100 µM | [17] > 10 µM | [18] > 100 µM

CCSC1=N/C(=C/c2ccccc2O)C(=O)N1
inactive: [2] 39.2 µM | [19] > 100 µM | [3] > 100 µM | [20] > 100 µM | [4] > 100 µM | [5] > 100 µM | [6] 87.3 µM | [7] 61 µM | [8] > 100 µM | [9] > 100 µM | [10] 90.6 µM | [11] > 100 µM | [12] 31.9 µM | [13] > 100 µM | [14] > 100 µM | [16] 91 µM | [17] > 100 µM | [18] 63 µM

c1csc(-c2sc(-c3ccsc3)cc2Cc2ccsc2)c1
inactive: [19] > 10 µM | [3] > 10 µM | [20] > 10 µM | [4] > 10 µM | [5] > 10 µM | [6] > 10 µM | [7] > 10 µM | [8] > 10 µM | [9] > 10 µM | [10] > 10 µM | [11] > 10 µM | [15] > 10 µM | [16] > 10 µM | [18] > 10 µM

O=C1/C(=C/c2ccco2)NC(=S)N1CN1CCCCC1
inactive: [1] > 100 µM | [2] 34 µM | [19] 21.8 µM | [3] 51.4 µM | [5] 25.8 µM | [6] 81.3 µM | [7] 60.1 µM | [8] 99.3 µM | [9] 36.3 µM | [10] > 100 µM | [11] > 100 µM | [12] 54.1 µM | [13] > 100 µM | [14] > 100 µM | [15] 13.3 µM | [16] > 100 µM | [17] > 100 µM | [18] 34.5 µM

Cn1c(=O)c2c(ncn2Cc2ccc(O)c([N+](=O)[O-])c2)n(C)c1=O
inactive: [1] > 100 µM | [2] > 100 µM | [19] > 100 µM | [3] > 100 µM | [4] > 100 µM | [5] > 100 µM | [6] > 100 µM | [7] > 100 µM | [8] > 100 µM | [9] > 100 µM | [10] > 100 µM | [11] > 100 µM | [12] > 100 µM | [13] > 100 µM | [14] > 100 µM | [15] > 100 µM | [16] > 100 µM | [17] > 100 µM | [18] > 100 µM

O=C(NN=C1CCN(Cc2ccccc2)CC1)C(O)(c1ccccc1)c1ccccc1
inactive: [19] > 100 µM | [3] > 100 µM | [20] > 100 µM | [4] > 100 µM | [5] > 100 µM | [6] > 100 µM | [8] > 100 µM | [9] > 100 µM | [10] > 100 µM | [11] > 100 µM | [12] > 100 µM | [15] > 100 µM | [16] > 100 µM | [18] > 100 µM

CCC1(c2ccc(OC)c(OC)c2)CCN2C(=O)C(O)CC21 (configuration not stated)
inactive: [2] > 100 µM | [19] > 100 µM | [3] > 100 µM | [20] > 100 µM | [5] > 100 µM | [6] > 100 µM | [7] > 100 µM | [8] > 100 µM | [9] > 100 µM | [10] > 100 µM | [11] > 100 µM | [12] > 100 µM | [13] > 100 µM | [14] > 100 µM | [15] > 100 µM | [16] > 100 µM | [17] > 100 µM | [18] > 100 µM

CSC(=S)Nc1cc(C)ccn1
inactive: [2] 70 µM | [19] > 100 µM | [3] 50.8 µM | [20] > 100 µM | [4] > 100 µM | [5] > 100 µM | [6] 20.8 µM | [7] 62.5 µM | [8] > 100 µM | [9] > 100 µM | [10] 33.1 µM | [11] > 100 µM | [12] > 100 µM | [13] 40.7 µM | [14] 40.6 µM | [15] 39.1 µM | [16] 76.7 µM | [17] 93.5 µM | [18] 78.2 µM
